One data set has as its system C. albicans SN250. Description: In vivo efficacy in murine candidiasis model (C. albicans SN250), female CD-1 mice, kidney fungal burden.
Data set [1] has as its system erythrocytes (whole human blood). As to the kind of experiment: MHC hemolysis assay. The class given is cell-based. The procedure:
MHC (FIG. 1B and FIG. 10): The protocol for the hemolysis assay was adapted from the report of Paquet and coworkers (Chem. Eur. J. 2008, 14, 2465-2481). Whole human blood (sodium heparin) was purchased from Bioreclamation LLC (Westbury, NY) and stored at 4° C. and used within two days of receipt. To a 2.0 mL appendorf tube, 1 mL of whole human blood was added and centrifuged at 10,000 g for 2 minutes. The supernatant was removed and the erythrocyte pellet was washed with 1 mL of sterile saline and centrifuged at 10,000 g for 2 minutes. The saline wash was repeated for a total of three washes. The erythrocyte pellet was suspended in 1 mL of RBC buffer (10 mM NaH2PO4, 150 mM NaCl, 1 mM MgCl2, pH 7.4) to form the erythrocyte stock suspension.
Compounds were prepared as >15 mM stock solutions in DMSO and serially diluted to the following concentrations with DMSO: 7689, 5126, 2563, 2050, 1538, 1025, 769, 513, 384, 256, 205, 154, 103, 77, 51, 26 μM. To a 0.2 mL PCR tube, 24 μL of RBC buffer and 1 μL of compound stock solution were added, which gave final concentrations of 500, 300, 200, 100, 80, 60, 40, 30, 20, 15, 10, 8, 6, 4, 3, 2, 1 μM. Positive and negative controls were prepared by adding 1 μL of DMSO to MilliQ water or RBC buffer, respectively to 0.2 mL PCR tube. To each PCR tube, 0.63 μL. of the erythrocyte stock suspension was added and mixed by inversion. The samples were incubated at 37° C. for 2 hours. The samples were mixed by inversion and centrifuged at 10,000 g for 2 minutes. 15 μL of the supernatant from each sample was added to a 384-well place. Absorbances were read at 540 nm using a Biotek H1 Synergy Hybrid Reader (Winooski, VT), Experiments were performed in triplicate and the reported MHC represents an average of three experiments.

Data set [2] can be described thus: Blood plasma stability, human. In kind it is in vitro ADME.
A further data set addresses P450 1A2 (Homo sapiens, UniProt P05177). As to the kind of experiment: P450 inhibition 1A2. The class given is in vitro ADME.
In the next data set the target is P450 2C9 (Homo sapiens, UniProt P11712). As to the kind of experiment: P450 inhibition 2C9. In kind it is in vitro ADME.
P450 2C9, sequence (P11712 whole entry): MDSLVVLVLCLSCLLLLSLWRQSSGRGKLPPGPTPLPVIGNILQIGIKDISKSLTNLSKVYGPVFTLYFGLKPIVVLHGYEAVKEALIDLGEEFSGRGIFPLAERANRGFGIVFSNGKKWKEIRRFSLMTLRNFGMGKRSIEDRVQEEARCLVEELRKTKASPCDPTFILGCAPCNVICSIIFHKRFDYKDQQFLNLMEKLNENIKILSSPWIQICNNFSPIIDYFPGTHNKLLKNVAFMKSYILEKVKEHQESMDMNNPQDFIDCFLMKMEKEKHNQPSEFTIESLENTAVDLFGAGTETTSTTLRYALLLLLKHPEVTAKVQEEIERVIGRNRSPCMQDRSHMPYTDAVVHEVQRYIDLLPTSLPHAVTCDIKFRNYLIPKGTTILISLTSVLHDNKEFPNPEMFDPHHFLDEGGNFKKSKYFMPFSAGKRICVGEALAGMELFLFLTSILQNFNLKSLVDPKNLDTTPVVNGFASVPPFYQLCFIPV
For the next data set, the target named is P450 2C19 (Homo sapiens, UniProt P33261). As to the kind of experiment: P450 inhibition 2C19. In kind it is in vitro ADME.
P450 2C19, sequence (P33261 whole entry): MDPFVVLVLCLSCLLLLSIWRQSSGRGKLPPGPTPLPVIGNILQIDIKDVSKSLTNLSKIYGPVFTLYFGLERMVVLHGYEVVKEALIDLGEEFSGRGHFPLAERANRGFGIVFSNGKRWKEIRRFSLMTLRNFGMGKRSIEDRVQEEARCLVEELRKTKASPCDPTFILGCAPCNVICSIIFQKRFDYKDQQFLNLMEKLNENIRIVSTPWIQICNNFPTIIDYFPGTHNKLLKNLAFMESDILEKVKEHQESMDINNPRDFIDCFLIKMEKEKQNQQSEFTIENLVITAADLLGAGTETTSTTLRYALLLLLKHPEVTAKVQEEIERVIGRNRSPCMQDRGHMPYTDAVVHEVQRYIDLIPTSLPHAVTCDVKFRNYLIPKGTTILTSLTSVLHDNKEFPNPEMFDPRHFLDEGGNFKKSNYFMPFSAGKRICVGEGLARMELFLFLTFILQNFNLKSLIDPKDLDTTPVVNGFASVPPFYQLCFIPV
In a further data set the target is P450 2D6 (Homo sapiens, UniProt P10635). Description: P450 inhibition 2D6. In kind it is in vitro ADME.
P450 2D6, sequence (P10635 whole entry): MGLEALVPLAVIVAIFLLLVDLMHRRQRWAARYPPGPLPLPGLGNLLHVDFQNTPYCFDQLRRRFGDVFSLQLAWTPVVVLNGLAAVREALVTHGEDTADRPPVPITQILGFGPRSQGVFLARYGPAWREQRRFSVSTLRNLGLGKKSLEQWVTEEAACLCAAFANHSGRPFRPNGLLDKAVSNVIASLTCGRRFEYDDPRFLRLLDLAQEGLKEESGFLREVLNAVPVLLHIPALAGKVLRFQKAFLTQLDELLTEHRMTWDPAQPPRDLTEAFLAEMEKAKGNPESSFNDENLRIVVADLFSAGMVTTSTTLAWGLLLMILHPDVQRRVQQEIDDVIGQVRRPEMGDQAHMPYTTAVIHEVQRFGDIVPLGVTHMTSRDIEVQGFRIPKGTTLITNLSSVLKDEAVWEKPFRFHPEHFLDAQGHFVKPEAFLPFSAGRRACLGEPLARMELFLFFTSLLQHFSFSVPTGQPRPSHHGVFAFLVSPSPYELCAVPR
In the next data set the target is P450 3A4 (Homo sapiens, UniProt P08684). Description: P450 inhibition 3A4. In kind it is in vitro ADME.
P450 3A4, sequence (P08684 whole entry): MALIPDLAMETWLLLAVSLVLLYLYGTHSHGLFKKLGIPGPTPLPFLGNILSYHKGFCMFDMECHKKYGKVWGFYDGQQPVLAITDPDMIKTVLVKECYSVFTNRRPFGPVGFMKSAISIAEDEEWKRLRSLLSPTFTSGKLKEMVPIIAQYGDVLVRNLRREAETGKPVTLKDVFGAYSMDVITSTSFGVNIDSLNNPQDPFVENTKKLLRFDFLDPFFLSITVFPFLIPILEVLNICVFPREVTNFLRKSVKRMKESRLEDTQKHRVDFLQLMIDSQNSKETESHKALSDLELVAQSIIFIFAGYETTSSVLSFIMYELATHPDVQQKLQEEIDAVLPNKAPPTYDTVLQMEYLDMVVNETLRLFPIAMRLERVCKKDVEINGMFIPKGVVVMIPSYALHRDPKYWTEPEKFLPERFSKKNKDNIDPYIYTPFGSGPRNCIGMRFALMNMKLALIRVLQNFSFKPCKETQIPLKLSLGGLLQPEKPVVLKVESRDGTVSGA
Another data set concerns A. lentulus. Description: MIC against moulds. The conditions noted are these: 6 isolates, AmB (AmBisome). The class given is cell-based.
The next data set concerns Fusarium oxysporum. As to the kind of experiment: MIC against moulds. The class given is cell-based. To be noted: 6 isolates, AmB (AmBisome).
A further data set has as its system Sporothrix schenckii. As to the kind of experiment: MIC against rare moulds resistant to AmB. In kind it is cell-based. To be noted: 6 isolates, Table 4.
A short description of a further data set: Solubility in D5W. The conditions noted are these: in D5W.
Data set [3] can be described thus: Mouse single IV injection: mortality.
Another data set concerns Candida albicans. As to the kind of experiment: MIC against yeasts. The class given is cell-based. To be noted: 15 isolates, Table 3A.
The next data set deals with Candida tropicalis. Description: MIC against yeasts. In kind it is cell-based. The conditions noted are these: 10 isolates, Table 3A.
The next data set relates to Trichophyton rubrum. As to the kind of experiment: MIC against yeasts (Table 3A). The class given is cell-based. The conditions noted are these: 3 isolates.
Data set [4] has as its system Trichophyton mentagropytes. As to the kind of experiment: MIC against yeasts (Table 3A). The conditions noted are these: 3 isolates. The class given is cell-based.
A further data set deals with Malassezia furfur. Description: MIC against yeasts (Table 3A). To be noted: 3 isolates. The class given is cell-based.
The next data set concerns Microsporum canis. As to the kind of experiment: MIC against yeasts (Table 3A). In kind it is cell-based. To be noted: 2 isolates.
A further data set relates to Scedosporium apiospermum. As to the kind of experiment: MIC against yeasts (Table 3A). In kind it is cell-based. The conditions noted are these: 2 isolates.
A further data set deals with Scedosporium prolificans. As to the kind of experiment: MIC against yeasts (Table 3A). In kind it is cell-based. To be noted: Lomentospora prolificans, 2 isolates.
Another data set deals with Epidermophyton floccosum. As to the kind of experiment: MIC against yeasts (Table 3A). The class given is cell-based. The conditions noted are these: 2 isolates.
Data set [5] has as its system A. funigatus (CEA10 strain). As to the kind of experiment: Efficacy study against pulmonary aspergillosis in neutropenic mice: survival. In kind it is in vivo. To be noted: 15 mg/kg QD IP for 7 days, monitored until day 14. The source says: Efficacy study (FIG. 22): Healthy mice were divided as 10 mice/group. […] Animals were infected with A. funigatus (CEA10 strain) (intranasal) on day 0. […] Survivability of the animals were monitored during the course of the study.

For the next data set, the system named is KIM1, LCN2, TIMP1, SPP1. The conditions noted are these: mouse, in vivo.
The nature of data set [6]: Tolerance study, IP dosing in immunocompromised mice, no infection. The conditions noted are these: 25 mg/kg QD IP 7 days, observed 14 days.

Consider three compounds from US12655173B2, “Hybrid amide derivatives of amphotericin B” (priority 2020, dated 2026).

≈ marks a conversion by molar mass, not a printed value.

P450 1A2, sequence (P05177 whole entry): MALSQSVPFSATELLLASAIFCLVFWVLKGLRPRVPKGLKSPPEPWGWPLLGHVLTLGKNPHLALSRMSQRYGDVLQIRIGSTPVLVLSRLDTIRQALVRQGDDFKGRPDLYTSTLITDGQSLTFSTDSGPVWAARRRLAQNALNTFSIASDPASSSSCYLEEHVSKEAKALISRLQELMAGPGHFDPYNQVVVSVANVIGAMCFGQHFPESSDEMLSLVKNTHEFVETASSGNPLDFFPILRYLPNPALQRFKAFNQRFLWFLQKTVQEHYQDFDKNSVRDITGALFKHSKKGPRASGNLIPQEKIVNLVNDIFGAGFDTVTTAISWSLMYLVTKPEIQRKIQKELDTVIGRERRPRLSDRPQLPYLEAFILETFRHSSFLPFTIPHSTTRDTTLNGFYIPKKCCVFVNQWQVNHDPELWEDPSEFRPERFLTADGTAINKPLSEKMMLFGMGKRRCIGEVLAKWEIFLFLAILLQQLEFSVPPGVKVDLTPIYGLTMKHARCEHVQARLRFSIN

With `CC1C=CC=CC=CC=CC=CC=CC=CC(OC2OC(C)C(O)C(N)C2O)CC2OC(O)(CC(O)CC(O)C(O)CCC(O)CC(O)CC(=O)OC(C)C(C)C1O)CC(O)C2C(=O)NC(CO)CO` (stereo not shown) [Compound 1], in the data set with C. albicans SN250, the “Mouse candidiasis model 5 mpk; Log (CFU/mL)” value is 4.8 Log (CFU/mL). Moreover, the MHC in [1] is more than 100. In addition, the “Blood Plasma Stability (T1/2, min) Human” value in [2] is on record as >289; >289 min. The “P450 Inhibition (%) 1A2” value on P450 1A2 stood at 8.7%. Also, the “P450 Inhibition (%) 2C9” value at P450 2C9 was determined as 26.9%. For the same compound, at P450 2C19, the “P450 Inhibition (%) 2C19” value worked out at 0.0%. In addition, the “P450 Inhibition (%) 2D6” value at P450 2D6 was determined as 0.0%. At P450 3A4, the “P450 Inhibition (%) 3A4” value is on record as 14.5%. For the same compound, the MIC with A. lentulus stood at 2.33 µM (≈ 2.32 µg/mL); in the data set on Fusarium oxysporum, 6 µM (≈ 5.98 µg/mL); with Sporothrix schenckii, 6 µM (≈ 5.98 µg/mL). Also, the “Solubility” value in the data set “Solubility in D5W” was more than 7220 µM. Further, the “Mouse single IV injection: mortality (40 mpk)” value in [3] was 0/4.

As to `CC1C=CC=CC=CC=CC=CC=CC=CC(OC2OC(C)C(O)C(N)C2O)CC2OC(O)(CC(O)CC(O)C(O)CCC(O)CC(O)CC(=O)OC(C)C(C)C1O)CC(O)C2C(=O)NC(CO)(CO)CO` (stereo not shown) [Compound 2], in data set [1], the MHC was more than 60. Moreover, the “Blood Plasma Stability (T1/2, min) Human” value in [2] is reported as more than 289 min. Moreover, the “P450 Inhibition (%) 1A2” value at P450 1A2 is 0.0%. Moreover, the “P450 Inhibition (%) 2C9” value at P450 2C9 came out at 0.0%. The “P450 Inhibition (%) 2C19” value on P450 2C19 came to 1.1%. Further, the “P450 Inhibition (%) 2D6” value at P450 2D6 is reported as 0.0%. On P450 3A4, the “P450 Inhibition (%) 3A4” value turned out to be 14.5%. The MIC in the data set with A. lentulus is 4.33 µM (≈ 4.45 µg/mL); with Fusarium oxysporum, 13.3 µM (≈ 13.7 µg/mL); in the data set with Sporothrix schenckii, more than 5.2 µM. Besides, the “Solubility” value in “Solubility in D5W” is 366 µM (≈ 376 µg/mL).

Consider `C[C@@H]1[C@H](O)[C@@H](C)/C=C/C=C/C=C/C=C/C=C/C=C/C=C/[C@H](OC2O[C@H](C)[C@@H](O)[C@H](N)[C@@H]2O)C[C@@H]2O[C@](O)(C[C@@H](O)C[C@@H](O)[C@H](O)CC[C@@H](O)C[C@@H](O)CC(=O)O[C@H]1C)C[C@H](O)[C@H]2C(=O)O` (stereo partly shown) [AmB, Amphotericin B], for which the “Mouse candidiasis model 5 mpk; Log (CFU/mL)” value in the data set on C. albicans SN250 is listed as 5.2 Log (CFU/mL). In addition, the MHC in data set [1] is recorded as 8.4. The half-life in data set [2] (human, blood plasma, read-out: Blood Plasma Stability (T1/2, min) Human) was more than 289 min. In addition, the MIC worked out at 3.75 µM (≈ 3.47 µg/mL) against A. lentulus (Aspergillus lentulus); 1.5 µM (≈ 1.39 µg/mL) against Fusarium oxysporum (Fusarium oxysporum); 0.61 µM (≈ 0.564 µg/mL) in the data set with Candida albicans; 0.8 µM (≈ 0.739 µg/mL) with Candida tropicalis; 1.1 µM (≈ 1.02 µg/mL) against Trichophyton rubrum; 4 µM (≈ 3.7 µg/mL) in data set [4]. Further, the MIC against Malassezia furfur was more than 16 µM; with Microsporum canis it was 0.56 µM (≈ 0.517 µg/mL); in the data set with Scedosporium apiospermum, more than 16 µM; with Scedosporium prolificans, more than 16 µM; in the data set on Epidermophyton floccosum, 0.38 µM (≈ 0.351 µg/mL); with Sporothrix schenckii (Sporothrix schenckii) it was 4 µM (≈ 3.7 µg/mL). Further, the results for the Survival in data set [5] and in data set [6] were 80% and 66%, respectively. Also, the “Renal toxicity biomarkers KIM1, LCN2, TIMP1, SPP1” value in the data set on KIM1, LCN2, TIMP1, SPP1 is “elevated”. In data set [3], the “Mouse single IV injection: mortality (40 mpk)” value was 0/3.
